Literature values as cited in US20140161820A1, “Short-Term Surrogate Test for Investigative Drugs” (priority 2012, published 2014).

Columns and labels:
platelets = conditions: in vivo
[1] = biological target: T1, cholesteryl ester transfer protein (CETP) (Homo sapiens, UniProt P11597); conditions: phase III, treatment group receiving a combination of atorvastatin (Lipitor) and torcetrapib
T1 construct: host or cells: human trial subjects (endogenous plasma CETP)
T1 sequence (P11597 18-493): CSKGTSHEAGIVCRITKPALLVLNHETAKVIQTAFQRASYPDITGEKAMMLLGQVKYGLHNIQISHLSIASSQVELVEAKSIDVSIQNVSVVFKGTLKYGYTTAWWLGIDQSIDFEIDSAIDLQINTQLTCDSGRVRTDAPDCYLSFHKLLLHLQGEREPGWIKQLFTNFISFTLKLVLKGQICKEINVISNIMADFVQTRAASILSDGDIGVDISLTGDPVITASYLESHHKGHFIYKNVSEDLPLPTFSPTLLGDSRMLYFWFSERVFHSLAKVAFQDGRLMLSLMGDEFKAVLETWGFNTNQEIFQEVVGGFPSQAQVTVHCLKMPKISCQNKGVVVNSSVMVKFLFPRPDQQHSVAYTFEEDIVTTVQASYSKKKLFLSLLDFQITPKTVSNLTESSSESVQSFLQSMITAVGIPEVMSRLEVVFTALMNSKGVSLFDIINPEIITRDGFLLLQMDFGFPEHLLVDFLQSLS

CC(=O)Oc1ccccc1C(=O)O [aspirin]
time by which anti-platelet effects are measurable (platelets): ≤ 60 min

CCOC(=O)N1c2ccc(C(F)(F)F)cc2[C@@H](N(Cc2cc(C(F)(F)F)cc(C(F)(F)F)c2)C(=O)OC)C[C@H]1CC [torcetrapib]
all-cause mortality [1]: excessive all-cause mortality
